The subject of series [1] is VEGF-induced retinal vascular permeability. Type of series: in vivo, Wistar rats. The following applies: rats, single 0.5% eye drop at different times before intravitreal VEGF.
Series [2] in a line: Ocular pharmacokinetics after one eye drop, rats. Type of series: in vivo, Wistar rats. As to conditions: 3 hours post-dose.
Series [3] in a line: Ocular pharmacokinetics after one eye drop, rabbits. The class given is in vivo, New Zealand white rabbits.
Where [4] appears, read: NZ rabbits, single eyedrop of 0.5%, mean ± SEM, N = 3 eyes per timepoint, SEM.
Where [5] appears, read: rabbits, single 0.5% eye drop, 24 hours.

Square brackets hold non-standard residues; d marks the D form. Peptide text beside a SMILES is read from it. Where only a bound is given, the exact number is not on record here.

On to `CC[C@@H](C)[C@H]1NC(=O)[C@@H]([C@H](C)O)NC(=O)[C@@H](Cc2c[nH]cn2)NC(=O)CNC(=O)[C@@H](CCCNC(=N)N)NC(=O)CNC(=O)[C@@H](Cc2ccccc2)NC1=O` [VIAN-c4551] (cyclo([dI][dF]G[dR]G[dH][dT])), for which the “Duration of protective effect against VEGF challenge after the eye drop” value in series [1] is 24 h. Moreover, the “Concentration in the vitreous (molar)” value in series [2] is recorded as ~391 nM. In addition, in series [3] (setting [4]), the “AUC0-24h, Retina-Choroid” value is recorded as 467,434 ± 45,884 hours × ng g^-1; the “AUC0-24h, Vitreous” value is listed as 1,678 ± 182 hours × ng mL^-1; the “Cmax, Retina-Choroid” value was 51,693.81 ± 6678.9 ng g^-1. The “Retina-choroid exposure at 24 hours above IC50” value in series [3] (rabbits, 24 hours, vs IC50 for endothelial permeability) is > 4 orders of magnitude. Further, in series [3] (rabbits, single 0.5% eye drop), the “Cmax in retina-choroid (molar)” value is ~67 µM and the “Retina/choroid Cmax above IC50 (137.3 pM)” value was 5 orders of magnitude. For the same compound, the Cmax in retina-choroid in series [3] (rabbits, single 0.5% eye drop (50 µL), HUVEC bioactivity read-out) was found to be 52 µg/g. In series [3] (setting [5]), the “Exposure in retina-choroid after 24 hours” value came out at 3.5 µg/g, the “Exposure in retina-choroid after 24 hours (molar)” value is ~4.64 µM, the “Exposure in vitreous after 24 hours” value was found to be 10.6 ng/mL and the “Exposure in vitreous after 24 hours (molar)” value was ~13.88 nM. Moreover, the “Time for which high retina-choroid levels lasted” value in series [3] (rabbits, single topical instillation of 0.5%) stood at 24 h.

The values above are taken from publication doi:10.1101/2024.09.11.612517v1 (bioRxiv, 2024).
